Test results as given in patent US12275729B2 (Merck Sharp & Dohme LLC, priority 2017, dated 2025).
pIC50: −log10 of the molar value.

molecular target: IDO1 (Homo sapiens, UniProt P14902); assay: IDO1 Cellular Assay in HeLa Cells Stimulated with IFNγ; format: cell-based; conditions: about 48 hours, read-out: Hela IC50
Sequence (P14902 whole entry): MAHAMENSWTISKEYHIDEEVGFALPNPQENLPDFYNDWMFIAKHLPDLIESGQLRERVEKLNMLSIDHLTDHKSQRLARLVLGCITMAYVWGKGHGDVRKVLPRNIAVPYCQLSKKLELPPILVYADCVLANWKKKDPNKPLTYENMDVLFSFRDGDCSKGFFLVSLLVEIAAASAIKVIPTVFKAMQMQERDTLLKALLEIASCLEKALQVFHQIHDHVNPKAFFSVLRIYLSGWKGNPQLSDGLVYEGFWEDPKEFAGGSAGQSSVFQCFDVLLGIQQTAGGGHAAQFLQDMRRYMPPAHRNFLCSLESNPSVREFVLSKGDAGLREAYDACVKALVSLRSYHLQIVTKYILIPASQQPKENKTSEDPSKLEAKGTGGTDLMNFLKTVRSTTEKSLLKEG

SMILES	pIC50
CC(NC(=O)c1ccc(F)cc1)c1ccc2c(n1)C(F)CCN2C(=O)C1CC1 (single isomer, unassigned) [Example 202, N-(1-(5-(cyclopropanecarbonyl)-8-fluoro-5,6,7,8-tetrahydro-1,5-naphthyridin-2-yl)ethyl)-4-fluorobenzamide]	6.40
CC(C)(C)OC(=O)N1CCCc2cc(C3(C(=O)NC45CC(C4)C5)CCC3)ccc21 [Example 119, tert-butyl 6-{1-[(bicyclo[1.1.1]pentan-1-yl)carbamoyl]cyclobutyl}-3,4-dihydroquinoline-1(2H)-carboxylate]	7.06
CC(C)CC(=O)N1CCCc2cc(CNC(=O)c3ccc(C(C)C)cc3)ccc21 [Example 3, N-{[1-(3-methylbutanoyl)-1,2,3,4-tetrahydroquinolin-6-yl]methyl}-4-(propan-2-yl)benzamide]	6.68
C[C@H](NC(=O)c1ccc(F)cn1)c1ccc2c(c1)CCCN2C(=O)C1(F)CC1 (single isomer, unassigned) [Example 34]	6.10
O=C(NC1(c2ccc3c(n2)CCCN3C(=O)C2CC2)CC1)c1ccc(F)cc1 [Example 168, N-{1-[5-(cyclopropanecarbonyl)-5,6,7,8-tetrahydro-1,5-naphthyridin-2-yl]cyclopropyl}-4-fluorobenzamide]	7.59
Cc1nnc(C(=O)N2CCCc3cc(C(C)C(=O)Nc4ccc(F)cc4)ccc32)o1 (stereo not drawn) [Example 44]	7.77
Cc1noc(C(=O)NCc2ccc3c(c2)CCCN3C(=O)c2cccc(Cl)c2)n1 [Example 21, N-{[1-(3-chlorobenzene-1-carbonyl)-1,2,3,4-tetrahydroquinolin-6-yl]methyl}-3-methyl-1,2,4-oxadiazole-5-carboxamide]	7.39
CC(NC(=O)c1ccc(F)cc1)c1ccc2c(n1)CCCN2C(=O)C1(C)CCCCO1 (stereo not drawn) [Example 136, 4-fluoro-N-{1-[5-(2-methyloxane-2-carbonyl)-5,6,7,8-tetrahydro-1,5-naphthyridin-2-yl]ethyl}benzamide]	6.27
CC(C(=O)Nc1ccc(F)cc1)c1ccc2c(n1)CCCN2C(=O)C1CCCCO1 (single isomer, unassigned) [Example 161, N-(4-fluorophenyl)-2-[5-(oxane-2-carbonyl)-5,6,7,8-tetrahydro-1,5-naphthyridin-2-yl]propanamide]	8.25
Cc1cc(C(=O)NCc2ccc3c(c2)CCCN3C(=O)c2cccc(Cl)c2)no1 [Example 22, N-{[1-(3-chlorobenzene-1-carbonyl)-1,2,3,4-tetrahydroquinolin-6-yl]methyl}-5-methyl-1,2-oxazole-3-carboxamide]	7.35
CO[C@H]1C[C@H](C(=O)N2CCCc3cc([C@H](C)C(=O)Nc4ccc(F)cc4)ccc32)C1 [Example 86, (2S)-N-(4-fluorophenyl)-2-[1-(trans-3-methoxycyclobutane-1-carbonyl)-1,2,3,4-tetrahydroquinolin-6-yl]propanamide]	7.75
Cc1nc(C(=O)N2CCCc3cc([C@@H](C)C(=O)Nc4ccc(F)cn4)ccc32)no1 [Example 64, (2R)-N-(5-fluoropyridin-2-yl)-2-[1-(5-methyl-1,2,4-oxadiazole-3-carbonyl)-1,2,3,4-tetrahydroquinolin-6-yl]propanamide]	7.35
O=C(C1CCOCC1)N1CCCc2nc(C3(C(=O)Nc4ccc(F)cc4)CCC3)ccc21 [Example 181, N-(4-fluorophenyl)-1-[5-(oxane-4-carbonyl)-5,6,7,8-tetrahydro-1,5-naphthyridin-2-yl]cyclobutane-1-carboxamide]	8.51
CC(NC(=O)c1ccc(F)cc1)c1ccc2c(n1)C(F)(F)CCN2C(=O)C1CC1 (single isomer, unassigned) [Example 195, N-(1-(5-(cyclopropanecarbonyl)-8,8-difluoro-5,6,7,8-tetrahydro-1,5-naphthyridin-2-yl)ethyl)-4-fluorobenzamide]	5.02
CC(C(=O)Nc1ccc(F)cc1)c1ccc2c(n1)CCCN2C(=O)C1CCCCO1 (stereo not drawn) [Example 158, N-(4-fluorophenyl)-2-[5-(oxane-2-carbonyl)-5,6,7,8-tetrahydro-1,5-naphthyridin-2-yl]propanamide]	7.42
CC(NC(=O)c1ccc(F)cc1)c1ccc2c(n1)C(O)CCN2C(=O)C1CC1 (stereo not drawn) [Example 196, N-(1-(5-(cyclopropanecarbonyl)-8-hydroxy-5,6,7,8-tetrahydro-1,5-naphthyridin-2-yl)ethyl)-4-fluorobenzamide]	6.47
CC(NC(=O)c1ccc(F)cc1)c1ccc2c(n1)CCCN2C(=O)[C@@H]1CCCCO1 (stereo partly drawn) [Example 132, 4-fluoro-N-(1-(5-((S)-tetrahydro-2H-pyran-2-carbonyl)-5,6,7,8-tetrahydro-1,5-naphthyridin-2-yl)ethyl)benzamide]	7.31
O=C(NC1(c2ccc3c(n2)CCCN3C(=O)C2CCOCC2)CC1)c1ccc(F)cc1 [Example 172, 4-fluoro-N-{1-[5-(oxane-4-carbonyl)-5,6,7,8-tetrahydro-1,5-naphthyridin-2-yl]cyclopropyl}benzamide]	7.79
O=C(NC1(c2ccc3c(n2)CCCN3C(=O)C2CCCCO2)CC1)c1ccc(F)cc1 (stereo not drawn) [Example 177, 4-fluoro-N-{1-[5-(oxane-2-carbonyl)-5,6,7,8-tetrahydro-1,5-naphthyridin-2-yl]cyclopropyl}benzamide]	8.12
CC(=O)N1CCCc2nc(C3(NC(=O)c4ccc(F)cc4)CC3)ccc21 [Example 174, N-[1-(5-acetyl-5,6,7,8-tetrahydro-1,5-naphthyridin-2-yl)cyclopropyl]-4-fluorobenzamide]	6.57

More lines, now with the values ahead:

pIC50	SMILES
6.64	CC(NC(=O)c1ccc(F)cc1)c1ccc2c(n1)C(F)CCN2C(=O)C1CC1 (single isomer, unassigned) [Example 204, N-(1-(5-(cyclopropanecarbonyl)-8-fluoro-5,6,7,8-tetrahydro-1,5-naphthyridin-2-yl)ethyl)-4-fluorobenzamide]
7.24	COC(=O)N1CCCc2nc(C3(NC(=O)c4ccc(F)cc4)CC3)ccc21 [Example 215, methyl 6-{1-[(4-fluorobenzene-1-carbonyl)amino]cyclopropyl}-3,4-dihydro-1,5-naphthyridine-1(2H)-carboxylate]
8.92	CC(NC(=O)c1ccc(F)cc1)c1ccc2c(n1)CCCN2C(=O)c1cccc(C(F)(F)F)c1 (stereo not drawn) [Example 284, 2-(1-(4-fluorobenzamido)ethyl)-5-(3-(trifluoromethyl)benzoyl)-5,6,7,8-tetrahydro-1,5-naphthyridin-1-ium 2,2,2-trifluoroacetate]
8.26	CC(NC(=O)c1ccc(F)cc1)c1ccc2c(n1)CCCN2C(=O)OCCF (stereo not drawn) [Example 210, 2-fluoroethyl 6-{1-[(4-fluorobenzene-1-carbonyl)amino]ethyl}-3,4-dihydro-1,5-naphthyridine-1(2H)-carboxylate]
8.55	CC(NC(=O)c1ccc(F)cc1)c1ccc2c(n1)CCCN2C(=O)c1cc(F)ccn1 (stereo not drawn) [Example 282, 2-(1-(4-fluorobenzamido)ethyl)-5-(4-fluoropicolinoyl)-5,6,7,8-tetrahydro-1,5-naphthyridin-1-ium 2,2,2-trifluoroacetate]
8.23	CC(C(=O)Nc1ccc(Cl)cc1)c1ccc2c(c1)CC(F)CN2C(=O)c1cccc(Cl)c1 (single isomer, unassigned) [Example 258, 2-(1-(3-chlorobenzoyl)-3-fluoro-1,2,3,4-tetrahydroquinolin-6-yl)-N-(4-chlorophenyl)propanamide]
5.38	CC(C(=O)Nc1ccc(F)cc1)c1ccc2c(c1)CCCN2C1CCCCC1 (stereo not drawn) [Example 228, 2-(1-cyclohexyl-1,2,3,4-tetrahydroquinolin-6-yl)-N-(4-fluorophenyl)propanamide]
7.70	COC(=O)N1CCCc2nc(C(C)C(=O)Nc3ccc(Cl)cc3)ccc21 (stereo not drawn) [Example 221, methyl 6-{1-[(4-chlorophenyl)amino]-1-oxopropan-2-yl}-3,4-dihydro-1,5-naphthyridine-1(2H)-carboxylate]

same assay, conditions: read-out: Hela IC50

pIC50	SMILES
7.70	CC(NC(=O)c1ccc(F)cc1)c1ccc2c(n1)CCCN2C(=O)OC(C)c1cccnc1 (stereo not drawn) [Example 318, 1-(pyridin-3-yl)ethyl 6-(1-(4-fluorobenzamido)ethyl)-3,4-dihydro-1,5-naphthyridine-1(2H)-carboxylate]
5.66	CC(NC(=O)c1ccc(F)cc1)c1ccc2c(n1)CCCN2C(=O)OCCN(C)C (stereo not drawn) [Example 329, 2-(dimethylamino)ethyl 6-(1-(4-fluorobenzamido)ethyl)-3,4-dihydro-1,5-naphthyridine-1(2H)-carboxylate]
